Measured values published in patent US9522888B2, “Substituted bicyclic compounds” (BRISTOL-MYERS SQUIBB COMPANY, priority 2014, dated 2016).

Tests used:
[1] = test system: circulating lymphocytes; assay: Blood Lymphocyte Reduction (BLR) assay in mouse; type: in vivo, BALB/c mice; settings: oral; for lymphocyte reduction: mice, 24 hours post dose
Method: (§1) Blood Lymphocyte Reduction (BLR) Assay in Rodent:
(§2) Lewis rats or BALB/c mice were dosed orally with vehicle alone (polyethylene glycol 300, “PEG300”) or with test compounds. Compounds were dosed as a solution or suspension in the vehicle, adjusted to reflect the free amount of test article in the event that salt forms are utilized. Blood was drawn at 24 hr and blood lymphocyte counts were determined on an ADVIA 120 Hematology Analyzer (Siemens Healthcare Diagnostics). The results were measured as a reduction in the percentage of circulating lymphocytes as compared to the vehicle treated group at the time of measurement. The results represent the average results of all animals within each treatment group (n=2-4).

[2] = test system: circulating lymphocytes; assay: Blood Lymphocyte Reduction (BLR) assay in rat; type: in vivo, Lewis rats; settings: oral; for Percent reduction vs. control at 24 hr post-dose: blood lymphocytes; for lymphocyte reduction: rodent BLR assay, 24 hours post-dose, versus vehicle treated group
Method: as §1, §2

[3] = test system: adjuvant-induced arthritis, hind paw volume; assay: Rat Adjuvant Induced Arthritis Assay (AA); type: in vivo, Male Lewis rats; settings: Lewis rat; for paw swelling (mL) on day 20, Mean: once daily oral prophylactic
Method: Rat Adjuvant Induced Arthritis Assay (AA) The rat adjuvant-induced arthritis model is an animal model for human rheumatoid arthritis. Male Lewis rats (150-175 g; Harlan, n=8 treatment group) were immunized at the base of the tail with 100 μl of 10 mg/ml freshly ground Mycobacterium butyricum (Difco Laboratories) in incomplete Freund's adjuvant (sigma). Animals were dosed once daily with the test article (as a solution or suspension in the vehicle) or vehicle alone (polyethylene glycol 300, “PEG300”) starting from the day of immunization. The volumes of their hind paws were measured in a water displacement plethysmometer (Ugo Basile, Italy). The baseline paw measurements were taken before onset of the disease (between day 7 to day 10). […] All procedures involving animals were reviewed and approved by the Institutional Animal Care Use Committee.

CCCCCOc1ccc2cc([C@@H]3CC[C@](N)(CO)C3)ccc2c1 [Comparative Compound 703, reference compound]
lymphocyte reduction ([1]; 1.0 mg/kg): 52% | Mouse Blood Lymphocyte Reduction Assay at 24 hr post-dose Percent reduction vs. control ([1]; 1.0 mg/kg): 52%

COCCCCCC1CCc2cc([C@@H]3CC[C@](N)(CO)C3)ccc2C1 (single isomer, unassigned) [Example 675]
Percent reduction vs. control at 24 hr post-dose ([2]; 0.1 mg/kg): 63% | lymphocyte reduction ([2]; 0.1 mg/kg): 63%

COCCCCC[C@H]1CCc2cc([C@H]3CC[C@](N)(CO)C3)ccc2C1 [Example 672, ((1R,3S)-1-amino-3-((S)-6-(5-methoxypentyl)-5,6,7,8-tetrahydronaphthalen-2-yl)cyclopentyl)methanol]
Percent reduction vs. control at 24 hr post-dose ([2]; 0.1 mg/kg): 47% | paw swelling (mL) on day 20, Mean ([3]; 0.1 mg/kg): 2.60 mL | paw swelling (mL) on day 20, Mean ([3]; 0.3 mg/kg): 1.46 mL | paw swelling (mL) on day 20, Mean ([3]; 1.0 mg/kg): 0.17 mL | inhibition of disease progression as measured by reduced paw swelling ([3]; prophylactic oral dosing regimen, result in words): showed inhibition of disease progression

COc1cccc(OC[C@@H]2CCc3cc([C@H]4CC[C@](N)(CO)C4)ccc3C2)c1 [Example 684, ((1R,3S)-1-amino-3-((R)-6-((3-methoxyphenoxy)methyl)-5,6,7,8-tetrahydronaphthalen-2-yl)cyclopentyl)methanol]
Percent reduction vs. control at 24 hr post-dose ([2]; 0.05 mg/kg): 72% | lymphocyte reduction ([1]; 0.5 mg/kg): 79% | Mouse Blood Lymphocyte Reduction Assay at 24 hr post-dose Percent reduction vs. control ([1]; 0.5 mg/kg): 79%

COc1cccc(CC[C@H]2CCc3cc([C@H]4CC[C@](N)(CO)C4)ccc3C2)c1 [Example 676, ((1R,3S)-1-amino-3-((S)-6-(3-methoxyphenethyl)-5,6,7,8-tetrahydronaphthalen-2-yl)cyclopentyl) methanol]
Percent reduction vs. control at 24 hr post-dose ([2]; 0.1 mg/kg): 63%

CCOCCC[C@H]1CCc2cc([C@H]3CC[C@](N)(CO)C3)ccc2C1 [Example 678, ((1R,3S)-1-amino-3-((R)-6-(3-ethoxypropyl)-5,6,7,8-tetrahydronaphthalen-2-yl)cyclopentyl)methanol]
Percent reduction vs. control at 24 hr post-dose ([2]; 0.1 mg/kg): 16% | Percent reduction vs. control at 24 hr post-dose ([2]; 0.3 mg/kg): 53% | lymphocyte reduction ([2]; 0.1 mg/kg): 16%

COc1cccc(CC[C@@H]2CCc3cc([C@H]4CC[C@](N)(CO)C4)ccc3C2)c1 [Example 677, ((1R,3S)-1-amino-3-((R)-6-(3-methoxyphenethyl)-5,6,7,8-tetrahydronaphthalen-2-yl)cyclopentyl)methanol]
Percent reduction vs. control at 24 hr post-dose ([2]; 0.05 mg/kg): 49%

COc1cccc(OC[C@H]2CCc3cc([C@H]4CC[C@](N)(CO)C4)ccc3C2)c1 [Example 685, ((1R,3S)-1-amino-3-((S)-6-((3-methoxyphenoxy)methyl)-5,6,7,8-tetrahydronaphthalen-2-yl)cyclopentyl)methanol]
Percent reduction vs. control at 24 hr post-dose ([2]; 0.1 mg/kg): 55%

COc1ccccc1CC[C@H]1CCc2cc([C@H]3CC[C@](N)(CO)C3)ccc2C1 [Example 682, ((1R,3S)-1-amino-3-((R)-6-(2-methoxyphenethyl)-5,6,7,8-tetrahydronaphthalen-2-yl)cyclopentyl)methanol]
Percent reduction vs. control at 24 hr post-dose ([2]; 0.1 mg/kg): 17% | Percent reduction vs. control at 24 hr post-dose ([2]; 2.0 mg/kg): 83% | lymphocyte reduction ([2]; 0.1 mg/kg): 17%

COCCCCCC1CCc2cc([C@@H]3CC[C@](N)(CO)C3)ccc2C1 (single isomer, unassigned) [Example 674]
Percent reduction vs. control at 24 hr post-dose ([2]; 0.1 mg/kg): 30% | Percent reduction vs. control at 24 hr post-dose ([2]; 0.3 mg/kg): 73% | lymphocyte reduction ([2]; 0.1 mg/kg): 30%
